These results are taken from patent US5137906A, “Treatment of central nervous system disorders with benzimidazole angiotensin-II receptor antagonists” (E. I. Du Pont de Nemours and Company, priority 1990, dated 1992).

Entries after “also recorded” stand apart in the source; their conditions may differ.

The test system of experiment [1] is passive avoidance (PA) response. Particulars: in words; injected into dorsal neostriatum; cited from earlier work.
Experiment [2] concerns release of ACh in entorhinal cortex from rat brain. Particulars: in words; cited from earlier work.
For experiment [3], the system named is AII receptor subtype-2 (AII-2). Particulars: cited from earlier work.
Experiment [4] relates to AII receptor subtype-1 (AII-1). Particulars: cited from earlier work.
Experiment [5] relates to AII binding sites in the brain. The experiment can be described thus: binding of AII antagonists to sections of brain slices. Particulars: in words.
The subject of experiment [6] is uphill avoidance. Particulars: in words; 30 mg/kg PO, acute; cited from earlier work.
In experiment [7] the test system is scopolamine-induced impairment of eight arm radial maze performance. Particulars: in words; 3 mg/kg IP; cited from earlier work.
The test system of experiment [8] is ACh in the striatum and hypothalamus. Particulars: in words; acute or repeated administration; cited from earlier work.
Experiment [9] concerns scopolamine-induced amnesia of a PA response. Particulars: in words; 1, 3 and 10 mg/kg PO three times per day; cited from earlier work.
Experiment [10] concerns renin-induced disruption of passive avoidance retention. The experiment can be described thus: renin-disrupted passive avoidance retention. Particulars: for protection against / prevention of renin-induced amnesia: co-administered with renin IVT. The experiment is classed as in vivo, male Sprague-Dawley rats. The method, then:
Experimentally naive male Sprague-Dawley rats 100 to 125 days old (Charles River Breeding Laboratories, Kingston, N.Y.), weighing between 175 to 200 gm were used. The animals were housed four per cage (45.0 L×20.0 H×26.0 W cm) with free access to food and water. They were maintained on a 12 h light/dark cycle (lights on 0600 h) and at a room temperature of 22°±1° C. with relative humidity of 50±10%.
The experimental sessions were conducted in a two-compartment passive avoidance box. One compartment, made of clear plastic with a perforated clear plastic floor, measured 21(L)×24.5(H)×17(W) cm and was illuminated with a 60 watt incandescent light bulb placed 36 cm above the floor. The other compartment, made of black plastic, measured 30.5 (L)×20.3 (H)×21.5 (W) cm with a floor made of 4 mm stainless steel rods spaced 1.2 cm apart. A grid floor shocker (Coulbourn Instruments) was connected to the steel rods and provided scrambled footshock. The two compartments were separated by a solenoid-operated slide door (Lafayette Instrument Co., Lafayette, Ind.). An electronic counter (Coulbourn Instruments), triggered by the opening or closing of the slide door, recorded acquisition and retention latencies (latencies were defined as the time it took an animal to enter the dark compartment).
Passive avoidance training began by placing the rat into the clear compartment of the two-compartment passive avoidance box. Following a 10 sec delay, the slide door for the dark compartment was raised. Once the rat moved completely into the dark compartment (all four paws on the shock grid floor) the slide door was lowered, and after a 10 sec. delay, a 1.0 mA shock was applied to the grid floor for three sec. A second three s shock was delivered after an additional 10 sec delay. The rats were immediately removed from the dark compartment and returned to their home cage. A retention test was given 24 h later. It proceeded in the same manner as the training session except that no shock was applied to the grid floor when the rats were provided access to the dark compartment for a maximum of 300 sec.
Doses are expressed as the free base weight of each compound.

Experiment [11] deals with light/dark habituation performance. Particulars: in words; subchronic treatment; cited from earlier work.
Experiment [12] has as its system avoidance learning. Particulars: in words, cited from earlier work.
Experiment [13] relates to anticholinergic scopolamine-induced disruption of performance. Particulars: in words; daily treatment; cited from earlier work.
For experiment [14], the system named is AII in cerebrospinal fluid (CSF). Particulars: after renin into lateral ventricle; increased from 40; cited from earlier work.
Setting [15] is: compound 10 μg/5 μL IVT + renin 1.0 μg/5 μL IVT.
Setting [16] is: compound 30 μg/5 μL IVT + renin 1.0 μg/5 μL IVT.
Setting [17] is: compound 100 μg/5 μL IVT + renin 1.0 μg/5 μL IVT.

For “Angiotensin II (DRVYIHPF; Angiotensin-2; UniProt P01019 25-32, looked up) [AII]”, the “effect on retention of a PA response” value in experiment [1] was “disruption in retention of a PA response”. In addition, in experiment [2], the “effect on basal levels of ACh release” value is on record as “without effects on basal levels” and the “effect on potassium-stimulated release of ACh” value is listed as “reduced potassium-stimulated release of ACh”.
With `O[C@H](CS)[C@H](O)CS` (racemic) [DTT, dithiothreitol], in [3] (in words), the “inactivation of AII-2 receptor by DTT” value is “resistant”. Besides, the “inactivation of AII-1 receptor by DTT” value in experiment [4] (in words) was “particularly sensitive to inactivation”. For the same molecule, the “sensitivity of AII binding sites in the brain, minor clusters (AII-1 receptors)” value in experiment [5] (AII-1) is listed as “DTT-sensitive”. The “sensitivity of the majority of AII binding sites in the brain (AII-2 receptors)” value in [5] is “DTT-sensitive”.
For “[1-sarcosine, 8-threonine]angiotensin II”, in experiment [2], the “antagonism of AII effect on ACh release” value was “antagonized”.
Consider lysine-8-vasopressin, for which, in experiment [1], the “effect on retention of a PA response” value is given as “no effect”.
On to `CCOC(=O)C(CCc1ccccc1)NC(C)C(=O)N1CC2(CC3CCC2CC3)CC1C(=O)O` (stereo not drawn) [Hoe 288], for which the “performance during retention testing, uphill avoidance” value in experiment [6] is “improved performance during retention testing”. The “effect on muscarinic receptor blockade impairment of performance” value in experiment [7] is listed as “partially antagonized the effects of muscarinic receptor blockade on performance”. Besides, the “change in ACh in the striatum and hypothalamus” value in experiment [8] is “significant decrease in ACh in the striatum and hypothalamus”. Further, the “effect on scopolamine-induced PA amnesia” value in [9] was “partially reversed the amnesia”.
As for `C[C@H](CS)C(=O)N1CCC[C@H]1C(=O)O` [captopril], the “prevention of renin-induced amnesia in PA task by IVT captopril” value in [10] (in words, own laboratory, captopril IVT) is “prevented”. For the same molecule, the “rate of acquisition of light/dark habituation performance” value in [11] is on record as “increased the rate of acquisition”. Moreover, the “effect on renin-induced avoidance disruption” value in experiment [12] (IVT prior to renin injection) is on record as “prevented the renin-induced avoidance disruption”. Besides, the “effect on scopolamine-induced disruption of performance” value in experiment [13] is “prevented”.
For `Cc1cc(Cn2cnc3c2CC(C(=O)O)N(C(=O)C(c2ccccc2)c2ccccc2)C3)ccc1N` (stereo not drawn) [EXP655, 1-(4-amino-3-methylphenyl)methyl-5-diphenylacetyl-4,5,6,7-tetrahydro-1H-imidazo[4,5-c]pyridine-6-carboxylic acid], the “Median Retention Latency” value in experiment [10] (compound 0.1 μg/5 μL IVT + renin 1.0 μg/5 μL IVT) stood at 19 s; in [10] (compound 0.3 μg/5 μL IVT + renin 1.0 μg/5 μL IVT) it was 22 s; in experiment [10] (compound 1.0 μg/5 μL IVT + renin 1.0 μg/5 μL IVT), 15 s; in experiment [10] (compound 3.0 μg/5 μL IVT + renin 1.0 μg/5 μL IVT), 29 s; in experiment [10] (setting [15]), 15 s; in experiment [10] (setting [16]), 67 s. In addition, the “Median Retention Latency” value in [10] (setting [17]) amounted to 16 s. Besides, the “protection against / prevention of renin-induced amnesia” value (shortened to “protection against / prevention”) in experiment [10] (in words) is “much less effective in preventing the amnesia”. For the same molecule, the IC50 in [3] (AII-2 site, rat adrenal cortex, Chiu et al. 1989, read-out: inhibitory constant IC50 value) is ~0.1 µM; in experiment [4] (AII-1 site, rat adrenal cortex, Chiu et al. 1989, read-out: inhibitory constant IC50 value), ~300 µM. Further, in experiment [4] (in words, rat adrenal cortex), the “affinity/specificity for the AII-1 site” value is listed as “very low affinity”. Further, the “sensitivity of the majority of AII binding sites in the brain (AII-2 receptors)” value in experiment [5] was “EXP655-sensitive”.
Regarding `CCCc1nc(C(F)(F)F)c(CO)n1Cc1ccc(-c2ccccc2-c2nnn[nH]2)cc1` [Compound D, 2-n-propyl-5-hydroxymethyl-1-[(2'-(1H-tetrazol-5-yl)biphenyl-4-yl)methyl]-4-trifluoromethylimidazole], the figures for the “Median Retention Latency” value in [10] (setting [16]) and in experiment [10] (setting [17]) were 242 s and 10 s, respectively. For the same molecule, the “protection against / prevention” value in experiment [10] (in words) was “protected against the amnesia”.
As for `NC(=O)[C@@H]1CCCN1C(=O)[C@H](Cc1cnc[nH]1)NC(=O)[C@@H]1CCC(=O)N1` [thyrotropin releasing hormone], the “effect on retention of a PA response” value in [1] was “no effect”.
For `CCCc1nc(C(F)(F)F)c(C(=O)O)n1Cc1ccc(-c2ccccc2-c2nnn[nH]2)cc1` [Compound C, 2-n-propyl-1-[(2'-(1H-tetrazol-5-yl)biphenyl-4-yl)methyl]-4-trifluoromethylimidazole-5-carboxylic acid], the “Median Retention Latency” value amounted to 264 s in [10] (setting [15]), 300 s in [10] (setting [16]) and 34.5 s in experiment [10] (setting [17]). The “protection against / prevention” value in experiment [10] (in words) is “protected against the amnesia”.

B1: renin: Renin (Sigma Chemicals), a stimulator of endogenous AII biosynthesis (protein, UniProt P00797 67-406, looked up)
Renin: LTLGNTTSSVILTNYMDTQYYGEIGIGTPPQTFKVVFDTGSSNVWVPSSKCSRLYTACVYHKLFDASDSSSYKHNGTELTLRYSTGTVSGFLSQDIITVGGITVTQMFGEVTEMPALPFMLAEFDGVVGMGFIEQAIGRVTPIFDNIISQGVLKEDVFSFYYNRDSENSQSLGGQIVLGGSDPQHYEGNFHYINLIKTGVWQIQMKGVSVGSSTLLCEDGCLALVDTGASYISGSTSSIEKLMEALGAKKRLFDYVVKCNEGPTLPDISFHLGGKEYTLTSADYVFQESYSSKKLCTLAIHAMDIPPPTGPTWALGATFIRKFYTEFDRRNNRIGFALAR
With B1, the “AII in cerebrospinal fluid” value in experiment [14] was “about 5000 fmol per mL”. For the same molecule, the “Median Retention Latency” value is 254 s in [10] (Table 1, renin 0.1 μg/5 μL IVT); 117 s in experiment [10] (Table 1, renin 0.5 μg/5 μL IVT); 27 s in experiment [10] (Table 1, renin 1.0 μg/5 μL IVT); 56.5 s in [10] (Table 1, renin 3.0 μg/5 μL IVT); 17 s in [10] (Table 1, renin 5.0 μg/5 μL IVT); 48 s in experiment [10] (Table 2, renin 1.0 μg/5 μL IVT, Compound C 0 (renin-alone group)). Also, the “Median Retention Latency” value amounted to 32 s in [10] (Table 3, renin 1.0 μg/5 μL IVT, Compound D 0 (renin-alone group)) and 15.5 s in [10] (Table 4, renin 1.0 μg/5 μL IVT, EXP655 0 (renin-alone group)). For the same molecule, the “memory deficit / amnesia in PA task” value in experiment [10] (in words, renin IVT) is “produces a reliable memory deficit in rats; also recorded: dose-related amnesia”. The “effect on avoidance learning” value in [12] (renin into lateral ventricle (IVT)) is reported as “disruption of avoidance learning”.
